Assay results: US9957298B2, “Peptides as oxytocin agonists” (Hoffmann-La Roche Inc., priority 2014, dated 2018)
Starred links: 1 amine or outer side, 2 acyl side, 3 side chain; linkers in the order of their positions; H or OH if unused. Positions of bridges follow the written chain, without caps; N, C: chain ends. Non-standard residues stand in square brackets, D forms with d. Residues, ends and D or L forms follow the SMILES beside them. Phg = N[C@H](C(=O)O)c1ccccc1; Suc = O=C(CCC(=O)[*:2])[*:1]; hLeu = CC(C)CC[C@H](N)C(=O)O; Nva = CCC[C@H](N)C(=O)O; Dap = NC[C@H](N)C(=O)O; Sar = CNCC(=O)O

Legend:
Type in all cases: cell-based
[1] = target: T1, human V2 receptor (Homo sapiens, UniProt P30518); assay: Calcium flux assay (FLIPR), agonist mode, CHO cells expressing human V2 receptor + Gqs5; conditions: for EC50: CHO cells, human V2 + chimeric Gqs5, calcium flux FLIPR, read-out: hV2 EC50; for hV2 efficacy (%) / Emax: maximum response normalized to endogenous full agonist = 100%; for Emax: CHO, read-out: hV2 efficacy (%)
T1 construct: expressed in transfected cells
T1 sequence (P30518 whole entry): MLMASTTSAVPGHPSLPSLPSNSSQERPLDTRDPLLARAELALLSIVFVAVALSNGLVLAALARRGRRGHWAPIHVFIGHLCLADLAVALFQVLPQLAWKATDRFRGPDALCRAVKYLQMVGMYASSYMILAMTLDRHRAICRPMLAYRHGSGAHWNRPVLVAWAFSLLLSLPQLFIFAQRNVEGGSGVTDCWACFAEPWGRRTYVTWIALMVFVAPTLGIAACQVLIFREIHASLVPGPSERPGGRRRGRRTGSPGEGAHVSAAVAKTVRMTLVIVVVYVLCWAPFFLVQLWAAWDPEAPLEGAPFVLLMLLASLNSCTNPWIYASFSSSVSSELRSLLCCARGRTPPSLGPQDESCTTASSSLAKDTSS
From the text: (§1) Chines Hamster Ovary (CHO) cells were transfected with expression plasmids encoding either the human V1a, the human Oxytocin (OTR) or the human V2 receptor, the later in combination with the chimeric Gqs5 G protein to redirect the signal to Calcium flux. Stable cells were cloned by limiting dilution to yield monoclonal cell lines expressing either human V1a, human V2+Gqs5 or human OTR receptors and selected based on functional responses detected on a fluorometric imaging plate reader (FLIPR) detecting Calcium flux in the cell after receptor activation. The stable cell lines were grown in F-12 K Nutrient Mixture (Kaighns Modification), containing 10% foetal bovine serum (FBS), 1% penicillin-streptomycin, 1% L-[…], 200 ug/ml Geneticin at 37° C. in a 10% CO2 incubator at 95% humidity.
(§2) On the afternoon before the assay, cells were plated at a density of 50,000 cells/well into black 96 well plates with clear bottoms to allow cell inspection and fluorescence measurements from the bottom of each well. The density of cells was sufficient to yield a confluent monolayer the next day. Hanks balanced salt solution, without phenol red, containing 20 mM HEPES (pH 7.3) and 2.5 mM probenecid (assay buffer) was prepared fresh for each experiment. Compound dilutions were made using a Beckman Biomek 2000 laboratory automation workstation, in assay buffer containing 1% DMSO. The dye-loading buffer consisted of a final concentration of 2 μM Fluo-4-AM (dissolved in DMSO and pluronic acid) in assay buffer. The existing culture media was removed from the wells and 100 μl of the dye-loading buffer was added to each well and incubated for approximately 60 min at 37° C. in a 5% CO2 incubator at 95% humidity. Once dye-loaded, the cells were washed thoroughly on an Embla cell washer with the assay buffer to remove any unincorporated dye. Exactly 100 μl assay buffer was left in each well.
(§3) Each 96 well plate containing dye-loaded cells was placed into the FLIPR machine and the laser intensity set to a suitable level to detect low basal fluorescence. To test compounds as agonists, 25 μl diluted compound was added to the plate 10 seconds into the fluorescent measurements and fluorescent response was recorded for 5 minutes. The fluorescence data was normalized to the endogenous full agonist dose-response set at 100% for the maximum response and 0% for the minimum. Each agonist concentration-response curve was constructed using a four parameter logistic equation with Microsoft Excel XLFit as follows: Y=Minimum+((Maximum−Minimum)/(1+10^(LogEC50-X)nH)), where y is the % normalized fluorescence, minimum is the minimum y, maximum is the maximum y, logEC50 is the log10 concentration which produces 50% of the maximum induced fluorescence, x is the log10 of the concentration of the agonist compound and H is the slope of the curve (the Hill Coefficient). The maximum value gives the efficacy of the agonist test compound in percentage. The concentration of agonist that produced a half-maximal response is represented by the EC50 value, the logarithm of which yielded the pEC50 value.

[2] = target: T2, human Oxytocin (OTR) receptor (Homo sapiens, UniProt P30559); assay: Calcium flux assay (FLIPR), agonist mode, CHO cells expressing human oxytocin receptor; conditions: for EC50: CHO cells, human OTR, calcium flux FLIPR, read-out: hOT EC50; for Emax: CHO, read-out: hOT efficacy (%)
T2 construct: expressed in transfected cells
T2 sequence (P30559 1-389): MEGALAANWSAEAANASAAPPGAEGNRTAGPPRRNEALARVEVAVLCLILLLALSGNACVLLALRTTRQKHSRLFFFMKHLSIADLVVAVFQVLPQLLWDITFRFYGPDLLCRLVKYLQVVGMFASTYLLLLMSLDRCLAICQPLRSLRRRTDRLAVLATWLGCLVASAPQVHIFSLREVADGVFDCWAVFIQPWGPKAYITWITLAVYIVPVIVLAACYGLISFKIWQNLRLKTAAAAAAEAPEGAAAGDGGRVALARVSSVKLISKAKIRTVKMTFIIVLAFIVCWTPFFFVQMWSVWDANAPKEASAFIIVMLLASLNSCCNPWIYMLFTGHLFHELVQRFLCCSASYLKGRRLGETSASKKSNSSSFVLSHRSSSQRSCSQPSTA

[3] = target: T3, human V1a receptor (Homo sapiens, UniProt P37288); assay: Calcium flux assay (FLIPR), agonist mode, CHO cells expressing human V1a receptor; conditions: read-out: hV1a EC50
T3 construct: expressed in transfected cells
T3 sequence (P37288 whole entry): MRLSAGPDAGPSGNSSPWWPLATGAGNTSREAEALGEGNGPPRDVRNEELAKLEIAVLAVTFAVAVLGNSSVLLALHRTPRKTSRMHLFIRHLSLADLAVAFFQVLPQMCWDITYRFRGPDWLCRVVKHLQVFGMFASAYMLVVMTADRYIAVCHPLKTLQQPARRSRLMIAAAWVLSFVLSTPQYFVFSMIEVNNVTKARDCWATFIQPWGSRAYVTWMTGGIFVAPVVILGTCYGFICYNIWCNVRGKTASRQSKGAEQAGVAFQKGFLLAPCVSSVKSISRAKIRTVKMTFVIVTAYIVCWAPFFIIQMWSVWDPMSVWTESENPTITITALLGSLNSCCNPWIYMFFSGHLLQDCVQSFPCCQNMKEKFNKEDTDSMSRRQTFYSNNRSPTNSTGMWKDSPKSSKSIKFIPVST
From the text: as §1, §2, §3

[4] = maximum response normalized to endogenous full agonist = 100%

| SMILES | EC50 [1] [µM] | hV2 efficacy (%) [1] [%] | EC50 [2] [µM] | Emax [2, 4] [%] | EC50 [3] [µM] | Emax [1] [%] | hOT efficacy (%) [2, 4] [%] |
| --- | --- | --- | --- | --- | --- | --- | --- |
| CC[C@H](C)[C@@H]1NC(=O)[C@H](Cc2ccc(O)cc2)NC(=O)CCC(=O)NC[C@@H](C(=O)N(C)CC(=O)N[C@@H](CCC(C)C)C(=O)NCC(N)=O)NC(=O)[C@H](CC(N)=O)NC(=O)[C@H](CCC(N)=O)NC1=O [Example 25] (YIQN[Dap][Sar][hLeu]G-NH2; linker N-5 via Suc) | 0.213 | 118 | 0.0008 | 103 | > 27 | – | – |
| CCC[C@H](NC(=O)CN(C)C(=O)[C@@H]1CNC(=O)CCC(=O)N[C@@H](Cc2ccc(O)cc2)C(=O)N[C@@H]([C@@H](C)CC)C(=O)N[C@@H](CCC(N)=O)C(=O)N[C@@H](CC(N)=O)C(=O)N1)C(=O)NCC(N)=O [Example 27] (YIQN[Dap][Sar][Nva]G-NH2; linker N-5 via Suc) | 0.282 | 114 | 0.0008 | 107 | > 27 | – | – |
| CC[C@H](C)[C@@H]1NC(=O)[C@H](Cc2ccc(O)cc2)NC(=O)CCC(=O)NC[C@@H](C(=O)N2CCC[C@H]2C(=O)N[C@H](C(=O)NCC(N)=O)c2ccccc2)NC(=O)[C@H](CC(N)=O)NC(=O)[C@H](CCC(N)=O)NC1=O [Example 19] (YIQN[Dap]P[Phg]G-NH2; linker N-5 via Suc) | 0.059 | 114 | 0.0004 | 114 | 0.47 | – | – |
| CC[C@H](C)[C@@H]1NC(=O)[C@H](Cc2ccc(O)cc2)NC(=O)CCC(=O)NC[C@@H](C(=O)N(C)CC(=O)N[C@@H](CCSC)C(=O)NCC(N)=O)NC(=O)[C@H](CC(N)=O)NC(=O)[C@H](CCC(N)=O)NC1=O [Example 26] (YIQN[Dap][Sar]MG-NH2; linker N-5 via Suc) | 0.281 | 119 | 0.0005 | 107 | > 27 | – | – |
| CC[C@H](C)[C@@H]1NC(=O)[C@H](Cc2ccc(O)cc2)NC(=O)CCC(=O)NC[C@@H](C(=O)N2CCC[C@H]2C(=O)N[C@@H](CC(C)C)C(=O)NCC(N)=O)NC(=O)[C@H](CC(N)=O)NC(=O)[C@H](CCC(N)=O)NC1=O [Example 1] (YIQN[Dap]PLG-NH2; linker N-5 via Suc (inferred); C-terminus assumed) | 0.216 | 130 | 0.001 | – | 5.12 | – | 105 |
| CC[C@H](C)[C@@H]1NC(=O)[C@H](Cc2ccc(O)cc2)NC(=O)CCC(=O)NC[C@@H](C(=O)N(C)CC(=O)N[C@@H](CC(C)C)C(=O)NCC(N)=O)NC(=O)[C@H](CC(N)=O)NC(=O)[C@H](CCC(N)=O)NC1=O [Example 3] (YIQN[Dap][Sar]LG-NH2; linker N-5 via Suc) | 0.612 | 130 | 0.0009 | 113 | > 27 | – | – |

Further lines, results first:

| EC50 [1] [µM] | hV2 efficacy (%) [1] [%] | EC50 [2] [µM] | Emax [2, 4] [%] | EC50 [3] [µM] | Emax [1] [%] | hOT efficacy (%) [2, 4] [%] | SMILES |
| --- | --- | --- | --- | --- | --- | --- | --- |
| 2.07 | – | 0.0006 | 109 | > 27 | 113 | – | CC[C@H](C)[C@@H]1NC(=O)[C@H](Cc2ccc(O)cc2)NC(=O)CCC(=O)NC[C@@H](C(=O)N(C)CC(=O)N[C@@H](C(=O)NCC(N)=O)[C@H](C)O)NC(=O)[C@H](CC(N)=O)NC(=O)[C@H](CCC(N)=O)NC1=O [Example 29] (YIQN[Dap][Sar][dT]G-NH2; linker N-5 via Suc) |
| 1.39 | – | 0.0005 | 109 | > 27 | 119 | – | CC[C@@H](C)[C@@H](NC(=O)CN(C)C(=O)[C@@H]1CNC(=O)CCC(=O)N[C@@H](Cc2ccc(O)cc2)C(=O)N[C@@H]([C@@H](C)CC)C(=O)N[C@@H](CCC(N)=O)C(=O)N[C@@H](CC(N)=O)C(=O)N1)C(=O)NCC(N)=O [Example 28] (YIQN[Dap][Sar][dI]G-NH2; linker N-5 via Suc) |
| 0.053 | 121 | 0.0002 | 112 | > 27 | – | – | CC[C@H](C)[C@@H]1NC(=O)[C@H](Cc2ccc(O)cc2)NC(=O)CCC(=O)NC[C@@H](C(=O)N(C)CC(=O)N[C@H](C(=O)NCC(N)=O)c2ccccc2)NC(=O)[C@H](CC(N)=O)NC(=O)[C@H](CCC(N)=O)NC1=O [Example 37] (YIQN[Dap][Sar][Phg]G-NH2; linker N-5 via Suc) |
